Converted amounts (≈) assume the structure as drawn. Read-outs that look alike come from different tables or passages of the source.
Tests used:
C. difficile = test: MIC by broth microdilution against C. difficile strains; format: cell-based, Clostridioides difficile; settings: for MIC: Clostridioides difficile
MRSA (NRS70, NRS119) = test: MIC against MRSA strains; format: cell-based, Staphylococcus aureus; settings: Staphylococcus aureus, NRS70 strain; Table 3 (SAR^2 and SAR^3); read-out: MIC MRSA
S. aureus ATCC29213 = test: MIC against MSSA; format: cell-based, Staphylococcus aureus; settings: Staphylococcus aureus; MSSA ATCC 29213; Table 10, unit inferred; read-out: Activity (MIC) against S. aureus
E. faecium NCTC7171 = test: MIC against E. faecium; format: cell-based, Enterococcus faecium; settings: Enterococcus faecium, NCTC7171; E. faecium NCTC 7171; Table 10, unit inferred; read-out: Activity (MIC) against E. faecium
HeLa cells = test: XTT cytotoxicity assay with HeLa cells; format: cell-based; settings: Homo sapiens, Table 6
Description: XTT assay. Cytotoxicity assays were performed in triplicate against HeLa cells (ATCC CCL-2). The IC50 values were calculated by nonlinear regression with GraphPad Prism 5 (San Diego, Calif.).
XTT assay. XTT assays were performed with HeLa cells (ATCC CCL-2) in triplicate, as previously described (Lancet 2008, 371, 1486). IC50 values were determined by nonlinear regression using GraphPad Prism 5 (San Diego, Calif.).

[1] = Pharmacokinetics study in mice (plasma and feces levels); format: in vivo; settings: for Conc. feces/MIC: dose 20 mg · kg^−1; for concentration at 8 h: female, CD-1, mouse, single oral gavage, dose 20 mg · kg^−1, feces collected after 8 h, read-out: Drug concentration in fecal samples (mg kg^−1 feces)
Description: Pharmacokinetics (PK) study. Mice (n=2 per time point) were given a single 100 μL solution of 5 mg/mL of compound 1 (equivalent to 20 mg/kg). Terminal blood was collected in heparinized syringes by cardiac puncture at 30 min, 1 h, 2 h, 4 h, and 8 h. The two mice at the 8-h time point were place in metabolism cages for collection of feces. Compound 1 was dissolved in 5% DMSO/95% water with 96 mg/mL of sodium bicarbonate. Blood was centrifuged at 1,000 g for 20 min at 4° C. and plasma was separated and stored at −80° C. until analysis. A 45-μL aliquot of plasma was mixed with 5 μL of H2O:ACN (1:1) and was quenched with 100 μL of acetonitrile containing 20 μM of internal standard (compound 10). The sample was centrifuged at 21,000 g for 15 min at 4° C. to precipitate the proteins, and the resulting supernatant was analyzed by UPLC-TQD detector using multiple-reaction monitoring (MRM). Calibration curves for compound 1 were prepared from 0 to 102.4 μM using a control mouse plasma (50 μL). Peak area ratios relative to internal standard and linear regression was used from which the concentrations in plasma samples from the PK study were determined.
An average of 250 mg of feces were collected at 8 h from two mice, and subsequently homogenized with 6 times the feces volume (1,500 μL of H2O:ACN 1:1) using a Bullet Blender (Next Advance, Inc., Troy, N.Y.). The homogenate was centrifuged at 21,000 g for 5 min. The fecal supernatant (72 μL) was mixed with 8 μL of a solution of H2O:ACN (1:1) and 40 μL of 50 μM of the internal standard in ACN with 0.5% formic acid. A calibration curve was prepared from 0 μM to 102.4 μM in control mouse feces. Plasma and feces were analyzed on a Waters TQD tandem quadrupole detector (Waters Corporation, Milford, Mass.) using a YMC-Triart C18 100 mm×2.0 mm column (3μ, YMC Co. Ltd, Kyoto, Japan). The chromatographic conditions consisted of elution with 30% H2O/70% ACN containing 0.10% formic acid for 5 min at a flow rate 0.5 mL/min. Mass Spectrometry acquisition was performed in the positive electrospray ionization mode with MRM. The capillary, cone, extractor and RF lens voltages were set at 2.8 kV, 40 V, 1 V and 0.1 V, respectively. The desolvation and cone gas (nitrogen) flow rates were 650 L/h and 50 L/h, respectively. The source temperature was set at 150° C. The desolvation temperature was 350° C. The MRM transitions used were 459.4→254.0 for compound 1, and 294.8→133.5 for the internal standard.
Animals. Female C57BL/6 mice weighing 18-20 g and 6-8 weeks of age were used for the efficacy study (Jackson, Bar Harbor, Me.). Female CD-1 mice (24-31 g and 7-8 weeks of age) were used for the PK study. They were housed in groups of five mice in sterile polycarbonate shoeboxes with bedding consisting of ¼-inch corncob (The Andersons Ind., Maumee, Ohio) and Alpha-Dri (Shepherd Specialty Papers, Inc., Richland, Mich.). Mice were maintained on a 12-h light/dark cycle at 72° F. and were given Teklad 2918 irradiated extruded rodent diet and water ad libitum. All procedures were performed in accordance with and approved by the University of Notre Dame Institutional Animal Care and Use Committee.
Pharmacokinetics (PK) Studies. Compounds 4, 87, 107, and 108 were dissolved in 10% DMSO, 25% propylene glycol, 15% Tween 80 and 50% water at concentrations of 5 mg/mL or 10 mg/mL. Compound 116 was dissolved in 5% DMSO, 95% water with 96 mg/mL of sodium bicarbonate. Mice (n=2 per time point) were given a single 100 μL oral gavage of the test compound (equivalent to either 10 mg/kg and/or 20 mg/kg), and terminal blood was collected in heparinized syringes by cardiac puncture at 30 min, 1 h, 2 h, 4 h, and 8 h. An average of 250 mg of feces were collected after 8 h from two mice housed in metabolism cages in each group for further analysis. Blood was centrifuged at 1000 g for 2 min at 4° C. to obtain plasma. Plasma and fecal samples were stored at −80° C. until analysis. […]

C. difficile ATCC43255 = test: Macromolecular synthesis assay (radioactive precursor incorporation); format: cell-based, Clostridioides difficile; settings: 0.5×MIC, N-acetyl-d-[6-^3H]glucosamine incorporation, 120 min
Description: FIG. 2. Mechanism of action of compound 1. (A) Macromolecular biosynthesis assays: Compound 1 was incubated with C. difficile ATCC43255 at 0.5×MIC. […] The incubation time was 60 min for DNA, 120 min for peptidoglycan synthesis and RNA, and 180 min for protein synthesis. (B-G) Imaging of C. difficile […] vegetative cells (logarithmic growth) by scanning electron microscopy.
The mechanism of action of 1 was investigated using macromolecular synthesis assays. These assays measure the incorporation of radioactive precursors ([2,8-^3H]-adenine, [5,6-^3H]-uridine, 1-[3,4,5-^3H(N)]-leucine, and N-acetyl-d-[6-^3H]glucosamine) respectively into DNA, RNA, protein, and peptidoglycan. […] This analysis visualizes the cell wall as the outermost layer of the cell envelope of Gram-positive bacteria such as C. difficile.
Macromolecular synthesis assay. The macromolecular synthesis assay was performed by established methods. […] The radiolabeled precursors were purchased from Perkin Elmer (Waltham, Mass., USA).

[2] = ATCC43255, ATCC 43255, ribotype 087, Table 3 (SAR^2 and SAR^3), read-out: MIC C. difficile
[3] = MIC MRSA/MIC C. difficile, Table 3
[4] = C. difficile, Table 8, read-out: MIC

SMILES | MIC (C. difficile; [2]) [µg/mL] | Selectivity (C. difficile; [3]) | MIC (MRSA (NRS70, NRS119)) [µg/mL] | MIC (S. aureus ATCC29213) [µg/mL] | MIC (E. faecium NCTC7171) [µg/mL] | IC50 (HeLa cells) [µg/mL] | MIC (C. difficile; ATCC43255, C. difficile ATCC 43255, read-out: MIC against C. difficile) [µg/mL] | MIC (C. difficile; [4]) [µg/mL] | Selectivity (C. difficile; Table 8) | Conc. feces/MIC [1] | concentration at 8 h [1] [ng/g] | MIC (C. difficile; ATCC43255, C. difficile ATCC43255, FIG. 2 legend, read-out: MIC of positive controls) [µg/mL] | inhibition of cell-wall peptidoglycan biosynthesis (C. difficile ATCC43255) [%]
O=C(Nc1ncco1)c1cc(-c2ccc(F)cc2)ccn1 [Compound 89, 4-(4-Fluorophenyl)-N-(oxazol-2-yl)picolinamide] | 1 (≈ 3.53 µM) | 64 | 64 (≈ 226 µM) | ≥ 128 | ≥ 128 | 170 ± 2.5 (≈ 601 µM) |  |  |  |  |  |  | 
O=C(Nc1ncco1)c1cc(-c2cc(F)cc(F)c2)ccn1 [Compound 94, 4-(3,5-Difluorophenyl)-N-(oxazol-2-yl)picolinamide] | 1 (≈ 3.32 µM) | 64 | 64 (≈ 212 µM) | ≥ 128 | ≥ 128 | 40.1 ± 1.6 (≈ 133 µM) |  |  |  |  |  |  | 
O=C(Nc1ncco1)c1cc(Oc2ccc(F)c(F)c2)ccn1 [Compound 106, 4-(3,4-Difluorophenoxy)-N-(oxazol-2-yl)picolinamide] |  |  |  | 64 (≈ 202 µM) | 128 (≈ 403 µM) | 106 ± 2.1 (≈ 334 µM) |  |  |  |  |  |  | 
O=C(Nc1ncco1)c1cc(-c2cccc(C(F)(F)F)c2)ccn1 [Compound 98, N-(Oxazol-2-yl)-4-(3-(trifluoromethyl)phenyl)picolinamide] | 0.5 (≈ 1.5 µM) | 128 | 64 (≈ 192 µM) | ≥ 128 | ≥ 128 | 115 ± 2.2 (≈ 344 µM) |  |  |  |  |  |  | 
O=C(Nc1ncco1)c1cc(-c2ccc(F)c(F)c2)ccn1 [Compound 90, 4-(3,4-Difluorophenyl)-N-(oxazol-2-yl)picolinamide] | 0.5 (≈ 1.66 µM) | 256 | 128 (≈ 425 µM) | ≥ 128 | ≥ 128 | > 64 |  |  |  |  |  |  | 
O=C([O-])c1ccc2oc(NC(=O)c3cc(Oc4ccc(F)c(F)c4)ccn3)nc2c1.[Na+] [Compound 116, Sodium 2-(4-(3,4-difluorophenoxy)picolinamido)benzo[d]oxazole-5-carboxylate] |  |  |  | 128 | 128 | > 128 | 0.5 | 0.5 | 128 | 7.4 | 3700 |  | 
O=C(Nc1ncco1)c1cc(-c2cccc(F)c2)ccn1 [Compound 93, 4-(3-Fluorophenyl)-N-(oxazol-2-yl)picolinamide] | 0.5 (≈ 1.77 µM) | 128 | 64 (≈ 226 µM) | ≥ 128 | ≥ 128 | > 64 |  |  |  |  |  |  | 
O=C(Nc1ncco1)c1ccnc(Oc2ccc(Cl)c(Cl)c2)c1 [Compound 99, 2-(3,4-Dichlorophenoxy)-N-(oxazol-2-yl)isonicotinamide] |  |  |  | 0.12 (≈ 0.343 µM) | 0.5 (≈ 1.43 µM) | 37 ± 1 (≈ 106 µM) |  |  |  |  |  |  | 
O=C(Nc1ncco1)c1cc(Oc2cccc(F)c2)ccn1 [Compound 107, 4-(3-Fluorophenoxy)-N-(oxazol-2-yl)picolinamide] |  |  |  | 64 (≈ 214 µM) | 64 (≈ 214 µM) | 88 ± 2.3 (≈ 294 µM) |  | 1 (≈ 3.34 µM) | >256 | 2.4 | 2400 |  | 
Cc1onc(-c2ccccc2)c1C(=O)N[C@@H]1C(=O)N2[C@@H]1SC(C)(C)[C@@H]2C(=O)O [oxacillin, reference compound] |  |  |  |  |  |  |  |  |  |  |  | 8 | 51±1
O=C(Nc1ncco1)c1cc(-c2ccc(C(F)(F)F)cc2)ccn1 [Compound 97, N-(Oxazol-2-yl)-4-(4-(trifluoromethyl)phenyl)picolinamide] | 0.25 (≈ 0.75 µM) | 512 | 128 (≈ 384 µM) | ≥ 128 | ≥ 128 | 135 ± 8.6 (≈ 405 µM) |  |  |  |  |  |  | 
O=C(Nc1ncco1)c1cc(-c2ccc(Cl)c(F)c2)ccn1 [Compound 92, 4-(4-Chloro-3-fluorophenyl)-N-(oxazol-2-yl)picolinamide] | 0.25 (≈ 0.787 µM) | 512 | 128 (≈ 403 µM) | ≥ 128 | ≥ 128 | > 256 |  |  |  |  |  |  | 

Source: patent publication US20230271950A1, “ANTIBACTERIAL PICOLINAMIDE COMPOUNDS” (University of Notre Dame Du Lac, priority 2020, published 2023)
